From BindingDB's records for doi:10.1016/0960-894X(95)00565-B (1996)

The compounds below were run against Arachidonate 15-lipoxygenase (Oryctolagus cuniculus) (assay: Inhibitory activity against reticulocyte 15-lipoxygenase in rabbit was evaluated.).

IC50 [µM]	SMILES
> 25	COc1cc(CCc2ccc(NC(=O)c3ccc(C)cc3O)cc2)ccc1O [2-Hydroxy-N-{4-[2-(4-hydroxy-3-methoxy-phenyl)-ethyl]-phenyl}-4-methyl-benzamide]
1.2	O=C(Nc1ccc(CCc2ccc(O)c(O)c2)cc1)c1cccc(Cl)c1O [3-Chloro-N-{4-[2-(3,4-dihydroxy-phenyl)-ethyl]-phenyl}-2-hydroxy-benzamide]
> 25	O=C(Nc1ccc(CCc2ccc(O)c(O)c2)cc1)c1ccc(-c2ccccc2)cc1O [3-Hydroxy-biphenyl-4-carboxylic acid {4-[2-(3,4-dihydroxy-phenyl)-ethyl]-phenyl}-amide]
1.5	O=C(Nc1ccc(CCc2ccc(O)c(O)c2)cc1)c1cc(Br)ccc1O [5-Bromo-N-{4-[2-(3,4-dihydroxy-phenyl)-ethyl]-phenyl}-2-hydroxy-benzamide]
5	O=C(Nc1ccc(CCc2ccc(O)c(O)c2)cc1)c1ccc(O)cc1O [N-{4-[2-(3,4-Dihydroxy-phenyl)-ethyl]-phenyl}-2,4-dihydroxy-benzamide]
5	Cc1ccc(C(=O)N(C)c2ccc(CCc3ccc(O)c(O)c3)cc2)c(O)c1 [N-{4-[2-(3,4-Dihydroxy-phenyl)-ethyl]-phenyl}-2-hydroxy-4,N-dimethyl-benzamide]
> 25	O=C(O)c1cccc(C(=O)Nc2ccc(CCc3ccc(O)c(O)c3)cc2)c1O [N-{4-[2-(3,4-Dihydroxy-phenyl)-ethyl]-phenyl}-2-hydroxy-isophthalamic acid]
> 25	COc1ccc(CCc2ccc(NC(=O)c3ccccc3O)cc2)cc1OC [N-{4-[2-(3,4-Dimethoxy-phenyl)-ethyl]-phenyl}-2-hydroxy-benzamide]
